According to patent US9938273B2 (Plexxikon Inc., priority 2015, dated 2018):

Key:
c-KIT = biological target: T1, c-KIT (Homo sapiens, UniProt P10721); assay: AlphaScreen kinase assay with recombinant enzyme, c-KIT; type: biochemical; conditions: 100ATP, 8pt, GMean
T1 construct: purchased Millipore 14-559K
Protocol: (§1) In order to determine the effect of compounds on FLT3 catalytic activity, kinase assays using recombinant enzymes and AlphaScreen® technology have been established. The catalytic activity of c-kit activity was also measured to determine selectivity of the compounds. When the kinases are catalytically active, they phosphorylate a biotinylated peptide substrate on tyrosine residues. Using AlphaScreen® technology, the ability of the compounds to affect the catalytic activity of the kinases can be measured quantitatively. The peptide substrate is immobilized by the AlphaScreen® Streptavidin Donor beads and, upon phosphorylation by a tyrosine kinase, can bind to AlphaScreen® Anti-Phosphotyrosine (PY20) Acceptor beads. Upon excitation of these beads with laser light at 680 nm, singlet oxygen is produced. This singlet oxygen is rapidly quenched, unless the AlphaScreen® Anti-Phosphotyrosine (PY20) Acceptor beads are in close proximity, in which case a proximity signal can be measured at 580 nm. In the presence of catalytic activity, there is a very strong proximity signal. Selective kinase inhibitors affect a decrease in this proximity signal through a decrease in tyrosine phosphorylation of the peptide substrate.
(§2) The assay was performed as summarized below.
(§3) Poly (Glu4-Tyr) Peptide, biotin conjugate [Biotin-GG(EEEEY)10EE] (SEQ ID NO: 4)
(§4) Final concentration=30 nM
(§5) Final concentration for IC50 determination=10 μM (FLT3-D835Y or FLT3-ITD) or 100 μM (c-KIT)
(§6) AlphaScreen® Phosphotyrosine (PY20) Assay Kit
(§7) Final concentration=10 μg/mL
(§8) Dilute compounds in DMSO to 20× final concentration.
(§9) Add 1 μl of compound to each well of 384 well reaction plate (Perkin Elmer #6005359).
(§10) Mix enzyme and Poly (Glu4-Tyr) Peptide substrate at 1.33× final concentration in assay buffer.
(§11) Mix ATP at 5× final concentration in assay buffer.
(§12) Add 15 μL enzyme/substrate mixture to the reaction plate.
(§13) Add 4 μL of ATP to the reaction plate.
(§14) Mix Streptavidin Donor beads at 6× final concentration in Stop/Detection buffer.
(§15) Add 5 μL Streptavidin Donor beads to the reaction plate. Centrifuge 1 minute, shake to mix, and incubate at room temperature for 20 minutes.
(§16) Mix Anti-Phosphotyrosine (PY20) Acceptor beads at 6× final concentration in Stop/Detection buffer.
(§17) Add 5 μL Anti-Phosphotyrosine (PY20) beads to the reaction plate.
(§18) Centrifuge 1 minute, shake to mix, and incubate at room temperature for 60 minutes.
(§19) Read plate on Wallac EnVision™ 2103 Multilabel Reader.

FLT3-D835Y = biological target: T2, FLT3-D835Y (Homo sapiens, UniProt P36888, D835Y); assay: AlphaScreen kinase assay with recombinant enzyme, FLT3-D835Y; type: biochemical; conditions: 8pt, GMean
T2 construct: purchased Invitrogen PV3967
T2 sequence (P36888 27-993 D835Y): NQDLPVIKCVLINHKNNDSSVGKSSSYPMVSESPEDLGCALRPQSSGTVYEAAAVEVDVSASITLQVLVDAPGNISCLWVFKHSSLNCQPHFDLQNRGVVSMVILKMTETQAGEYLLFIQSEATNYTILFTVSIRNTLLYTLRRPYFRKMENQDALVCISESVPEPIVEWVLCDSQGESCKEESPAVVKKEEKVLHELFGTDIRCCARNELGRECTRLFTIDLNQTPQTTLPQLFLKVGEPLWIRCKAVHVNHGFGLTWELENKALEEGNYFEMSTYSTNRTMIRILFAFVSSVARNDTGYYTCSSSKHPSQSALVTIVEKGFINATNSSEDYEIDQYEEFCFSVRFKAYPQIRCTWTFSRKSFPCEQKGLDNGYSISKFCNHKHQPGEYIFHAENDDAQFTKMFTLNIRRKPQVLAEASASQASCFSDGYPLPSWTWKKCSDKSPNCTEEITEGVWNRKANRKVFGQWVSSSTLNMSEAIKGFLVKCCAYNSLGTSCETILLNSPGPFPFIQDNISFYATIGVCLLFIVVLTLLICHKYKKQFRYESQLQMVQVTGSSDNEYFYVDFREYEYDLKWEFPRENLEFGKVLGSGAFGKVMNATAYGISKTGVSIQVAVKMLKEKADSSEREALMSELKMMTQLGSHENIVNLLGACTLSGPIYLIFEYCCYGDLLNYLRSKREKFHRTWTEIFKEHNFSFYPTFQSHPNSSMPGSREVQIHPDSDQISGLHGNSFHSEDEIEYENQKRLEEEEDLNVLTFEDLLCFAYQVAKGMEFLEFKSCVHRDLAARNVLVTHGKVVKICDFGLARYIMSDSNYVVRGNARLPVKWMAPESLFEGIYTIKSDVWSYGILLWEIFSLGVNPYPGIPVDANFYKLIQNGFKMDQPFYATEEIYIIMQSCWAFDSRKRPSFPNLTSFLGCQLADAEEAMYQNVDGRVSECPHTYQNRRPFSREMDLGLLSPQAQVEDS
Protocol: as §1, §2, §3, §4, §5, §6, §7, §8, §9, §10, §11, §12, §13, §14, §15, §16, §17, §18, §19

FLT3-ITD = biological target: T3, FLT3-ITD (Homo sapiens, UniProt P36888); assay: AlphaScreen kinase assay with recombinant enzyme, FLT3-ITD; type: biochemical; conditions: 8pt; read-out: FLT3_ITD 8pt: IC50
T3 sequence (P36888 1-993): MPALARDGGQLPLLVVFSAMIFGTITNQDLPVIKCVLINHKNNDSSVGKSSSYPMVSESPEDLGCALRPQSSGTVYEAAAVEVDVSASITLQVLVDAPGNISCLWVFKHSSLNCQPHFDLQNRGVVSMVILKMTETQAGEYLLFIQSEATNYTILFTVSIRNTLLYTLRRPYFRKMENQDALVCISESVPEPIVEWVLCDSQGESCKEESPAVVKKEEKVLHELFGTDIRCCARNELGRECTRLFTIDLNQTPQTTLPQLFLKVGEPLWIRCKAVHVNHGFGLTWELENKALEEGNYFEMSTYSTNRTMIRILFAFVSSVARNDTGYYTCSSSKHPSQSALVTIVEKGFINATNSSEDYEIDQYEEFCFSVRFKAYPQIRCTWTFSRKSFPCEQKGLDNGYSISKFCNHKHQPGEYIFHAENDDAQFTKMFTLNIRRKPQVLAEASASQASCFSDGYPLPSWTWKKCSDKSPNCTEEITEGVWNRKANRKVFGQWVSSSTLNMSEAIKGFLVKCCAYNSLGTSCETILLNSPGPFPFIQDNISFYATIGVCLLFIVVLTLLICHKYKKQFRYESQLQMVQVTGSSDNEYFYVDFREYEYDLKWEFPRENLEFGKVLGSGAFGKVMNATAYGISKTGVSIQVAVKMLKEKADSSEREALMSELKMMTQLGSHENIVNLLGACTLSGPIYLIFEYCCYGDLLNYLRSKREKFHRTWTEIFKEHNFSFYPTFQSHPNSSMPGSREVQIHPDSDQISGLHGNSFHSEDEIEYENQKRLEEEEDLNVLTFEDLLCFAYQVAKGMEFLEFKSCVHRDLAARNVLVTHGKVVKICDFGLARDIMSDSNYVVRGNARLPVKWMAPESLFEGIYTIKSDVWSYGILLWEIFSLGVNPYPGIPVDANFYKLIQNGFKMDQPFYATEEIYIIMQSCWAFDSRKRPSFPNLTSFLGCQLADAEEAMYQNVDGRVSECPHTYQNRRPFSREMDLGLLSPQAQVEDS
Protocol: as §1, §2, §3, §4, §5, §6, §7, §8, §9, §10, §11, §12, §13, §14, §15, §16, §17, §18, §19

[1] = system: MOLM-14 D835Y cells, FLT3 ITD and FLT3 D835Y; assay: Cell proliferation assay (CellTiter-Glo), MOLM-14 D835Y; type: cell-based; conditions: Homo sapiens, 72 h, 3d-Growth, GMean
Text: The FLT3 inhibitors may be assessed using the MOLM-14, Acute Myeloid Leukemia cell line that endogenously expresses FLT3 ITD or derivatives of the human FLT3 AML cell line which acquired the D835Y (activation loop) of F691L (gatekeeper) mutation after selection in escalating doses of the FLT3 Inhibitor AC220. FLT3 inhibitors may also be assessed using cells that are engineered to express mutant FLT3. For engineered cells, murine Ba/F3 cells were transfected with full-length FLT3 ITD/D835Y mutations. The parental BA/F3 cells are dependent upon Interleukin-3 (IL-3) for survival, and introduction of the FLT3 constructs rendered these cells dependent upon FLT3 kinase activity when cultured in the absences of IL-3. Engineered BA/F3 cell growth assays can be performed in either the […] of IL-3, to assess the compound inhibition of FLT3 or to detect the presence of off-target activity, respectively. Inhibitors of FLT3 kinase activity reduce or eliminate the FLT3 oncogenic signaling, resulting in reduced cell proliferation. This inhibition is measured as a function of compound concentration to asses IC50 values.
Cell lines used in proliferation assays are as follows in Table 3:
Cells were seeded at 1×10^4 cells per well of a 96 well cell culture plate in 50 μl of cell culture medium. Compounds were dissolved in DMSO, typically at a concentration of 0.5 mM and were serially diluted 1:3 for a total of eight points and added to the cells to final concentrations of […], 0.0041, 0.0014 and 0.00046 μM in 100 μl cell culture medium (final concentration 0.2% DMSO). […] The cells were incubated at 37° C., 5% CO2 for three days. CellTiter-Glo Buffer (Promega Cell Viability Assay catalog #G7573) and substrate were equilibrated to room temperature, and enzyme/substrate Recombinant Firefly Luciferase/Beetle Luciferin was reconstituted. The cell plates were equilibrated to room temperature for 30 minutes, then lysed by addition of an equivalent volume of the Celltiter-Glo Reagent. The plate was mixed for 10 minutes on a plate shaker to lyse the cells. The plates were read on a Tecan M1000 using Luminescence protocol modified to read 0.1 s per well. The luminescence reading assesses the ATP content, which correlates directly with cell number such that the reading as a function of compound concentration was used to determine the IC50 value.

T1 sequence (P10721 26-976): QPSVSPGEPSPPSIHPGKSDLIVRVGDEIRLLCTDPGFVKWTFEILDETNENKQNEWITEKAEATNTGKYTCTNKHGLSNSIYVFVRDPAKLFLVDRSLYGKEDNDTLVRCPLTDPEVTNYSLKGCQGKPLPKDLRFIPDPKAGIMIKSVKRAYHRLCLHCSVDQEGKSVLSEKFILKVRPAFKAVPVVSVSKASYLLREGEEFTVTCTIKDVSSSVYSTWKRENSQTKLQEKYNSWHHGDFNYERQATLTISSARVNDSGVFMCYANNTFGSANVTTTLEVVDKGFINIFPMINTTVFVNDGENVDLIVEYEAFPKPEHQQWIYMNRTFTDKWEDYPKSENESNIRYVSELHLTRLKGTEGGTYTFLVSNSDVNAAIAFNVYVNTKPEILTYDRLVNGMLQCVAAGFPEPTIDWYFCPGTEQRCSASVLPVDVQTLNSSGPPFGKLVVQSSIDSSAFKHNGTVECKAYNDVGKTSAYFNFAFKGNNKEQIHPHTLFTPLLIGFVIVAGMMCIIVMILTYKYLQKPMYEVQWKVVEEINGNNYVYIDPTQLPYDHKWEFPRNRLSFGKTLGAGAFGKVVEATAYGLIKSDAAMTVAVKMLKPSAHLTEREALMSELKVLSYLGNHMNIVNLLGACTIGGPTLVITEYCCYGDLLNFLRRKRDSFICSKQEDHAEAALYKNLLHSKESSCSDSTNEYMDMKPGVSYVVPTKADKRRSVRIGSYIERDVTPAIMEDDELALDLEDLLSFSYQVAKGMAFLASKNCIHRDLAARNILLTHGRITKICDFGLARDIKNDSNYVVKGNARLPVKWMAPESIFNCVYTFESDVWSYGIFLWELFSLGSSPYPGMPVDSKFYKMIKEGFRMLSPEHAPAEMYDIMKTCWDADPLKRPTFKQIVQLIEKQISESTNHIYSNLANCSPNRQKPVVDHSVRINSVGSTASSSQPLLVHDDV

Row | IC50 (c-KIT) [µM] | IC50 (FLT3-D835Y) [µM] | IC50 (FLT3-ITD) [µM] | IC50 [1] [µM] | SMILES
1 | 0.0001 to 10 | 0.0001 to 10 | 0.0001 to 10 | – | NC1CCC(NC(=O)c2n[nH]c3ccc(-c4cnc5[nH]c(-c6ccccc6)cc5c4)cc23)CC1 (centres unmarked) [Compound P-0019, N-(4-aminocyclohexyl)-5-(2-phenyl-1H-pyrrolo[2,3-b]pyridin-5-yl)-1H-indazole-3-carboxamide]
2 | 10 to 50 | 0.0001 to 10 | 0.0001 to 10 | – | O=C(O)C1CCN(C(=O)c2cccc(-c3cnc4[nH]c(-c5ccccc5)cc4c3)n2)CC1 [Compound P-0024, 1-[6-(2-phenyl-1H-pyrrolo[2,3-b]pyridin-5-yl)pyridine-2-carbonyl]piperidine-4-carboxylic acid]
3 | 0.0001 to 10 | 0.0001 to 10 | 0.0001 to 10 | – | CN[C@H]1CCN(C(=O)c2cccc(-c3cnc4[nH]c(-c5ccccc5)cc4c3)n2)C1 [Compound P-0051, [(3S)-3-(methylamino)pyrrolidin-1-yl]-[6-(2-phenyl-1H-pyrrolo[2,3-b]pyridin-5-yl)-2-pyridyl]methanone]
4 | 10 to 50 | 0.0001 to 10 | – | – | Cn1cc(NC(=O)c2cccc(-c3cnc4[nH]c(-c5ccccc5)cc4c3)n2)cn1 [Compound P-0065, N-(1-methylpyrazol-4-yl)-6-(2-phenyl-1H-pyrrolo[2,3-b]pyridin-5-yl)pyridine-2-carboxamide]
5 | 50 to 100 | 0.0001 to 10 | 0.0001 to 10 | – | Cn1ccc(NC(=O)c2cccc(-c3cnc4[nH]c(-c5ccccc5)cc4c3)n2)n1 [Compound P-0066, N-(1-methylpyrazol-3-yl)-6-(2-phenyl-1H-pyrrolo[2,3-b]pyridin-5-yl)pyridine-2-carboxamide]
6 | 10 to 50 | – | – | – | O=C(c1ccc(-c2cnc3[nH]c(-c4ccccc4)cc3c2)s1)N1CCC(n2ccnc2)C1 (centres unmarked) [Compound P-0110, (3-imidazol-1-ylpyrrolidin-1-yl)-[5-(2-phenyl-1H-pyrrolo[2,3-b]pyridin-5-yl)-2-thienyl]methanone]
7 | – | 0.0001 to 10 | – | 0.0001 to 10 | COC(=O)C1(NC(=O)c2cccc(-c3cnc4[nH]c(-c5ccccc5)cc4c3)n2)CC1 [Compound P-0129, methyl 1-[[6-(2-phenyl-1H-pyrrolo[2,3-b]pyridin-5-yl)pyridine-2-carbonyl]amino]cyclopropanecarboxylate]
8 | 50 to 100 | 0.0001 to 10 | 0.0001 to 10 | – | CC(C)(C#N)NC(=O)c1cccc(-c2cnc3[nH]c(-c4ccnc(F)c4)cc3c2)n1 [Compound P-0209, N-(1-cyano-1-methyl-ethyl)-6-[2-(2-fluoro-4-pyridyl)-1H-pyrrolo[2,3-b]pyridin-5-yl]pyridine-2-carboxamide]
9 | 50 to 100 | 0.0001 to 10 | 0.0001 to 10 | – | Cc1cc(-c2cc3cc(-c4cccc(C(=O)NC(C)(C)C#N)n4)cnc3[nH]2)ccn1 [Compound P-0210, N-(1-cyano-1-methyl-ethyl)-6-[2-(2-methyl-4-pyridyl)-1H-pyrrolo[2,3-b]pyridin-5-yl]pyridine-2-carboxamide]
